Test results: US5015631A, “Repairing agent for cells and tissues” (MECT Corporation, priority 1987, dated 1991)

Tested on: mice
Assay: Simple acute toxicity test by intravenous injection in mice
Format: in vivo, Male ddy mice
Conditions: for Final death rate / Number of death with the elapse of time: 3 mice
Experimental: Simple acute toxicity test:
Simple acute toxicity tests of the materials were conducted by intraveous injections for the mice as follows:
Lithium, potassium, barium and magnesium N-acetylneuraminates (products of MECT Corporation) were used.
Weight of the animal in the initial stage of the test: 17.7 to 21.1 g
Number of mice for each level: 3
(3) Room temperature: 23±1° C., humidity: 55±7%
(4) Route of administration: intravenous injection
The material was dissolved in the physiological saline. The concentration of the dose solution was adjusted so that 0.2 ml of the dose solution was administered per 20 g of the body weight of the mice. The solution was given to a tail of each mouse by the intravenous injection. The dose was 500, 1000 or 2000 mg/kg.
The general symptoms and death were observed from immediately after the administration to seven days after the administration.

SMILES | Final death rate (500 mg/kg i.v.) | Number of death with the elapse of time (500 mg/kg i.v., 1 hr) | Number of death with the elapse of time (500 mg/kg i.v., 3 hrs) | Number of death with the elapse of time (500 mg/kg i.v., 6 hrs) | Number of death with the elapse of time (500 mg/kg i.v., 24 hrs) | Number of death with the elapse of time (500 mg/kg i.v., 2 days) | Number of death with the elapse of time (500 mg/kg i.v., 3 days) | Number of death with the elapse of time (500 mg/kg i.v., 4 days) | Number of death with the elapse of time (500 mg/kg i.v., 5 days) | Number of death with the elapse of time (500 mg/kg i.v., 6 days) | Number of death with the elapse of time (500 mg/kg i.v., 7 days) | Final death rate (1000 mg/kg i.v.) | Number of death with the elapse of time (1000 mg/kg i.v., 1 hr) | Number of death with the elapse of time (1000 mg/kg i.v., 3 hrs) | Number of death with the elapse of time (1000 mg/kg i.v., 6 hrs) | Number of death with the elapse of time (1000 mg/kg i.v., 24 hrs) | Number of death with the elapse of time (1000 mg/kg i.v., 2 days) | Number of death with the elapse of time (1000 mg/kg i.v., 3 days) | Number of death with the elapse of time (1000 mg/kg i.v., 4 days) | Number of death with the elapse of time (1000 mg/kg i.v., 5 days) | also measured
CC(=O)N[C@H]1[C@H]([C@H](O)[C@H](O)CO)OC(O)(C(=O)[O-])C[C@@H]1O.[Li+] (stereo partly drawn) [Lithium N-acetylneuraminate] | 0/3 | 0 | 0 | 0 | 0 | 0 | 0 | 0 | 0 | 0 | 0 | 0/3 | 0 | 0 | 0 | 0 | 0 | 0 | 0 | 0 | Number of death with the elapse of time (1000 mg/kg i.v., 6 days): 0; Number of death with the elapse of time (1000 mg/kg i.v., 7 days): 0; Final death rate (2000 mg/kg i.v.): 0/3; Number of death with the elapse of time (2000 mg/kg i.v., 1 hr): 0; Number of death with the elapse of time (2000 mg/kg i.v., 3 hrs): 0; Number of death with the elapse of time (2000 mg/kg i.v., 6 hrs): 0; Number of death with the elapse of time (2000 mg/kg i.v., 24 hrs): 0; Number of death with the elapse of time (2000 mg/kg i.v., 2 days): 0; Number of death with the elapse of time (2000 mg/kg i.v., 3 days): 0; Number of death with the elapse of time (2000 mg/kg i.v., 4 days): 0; Number of death with the elapse of time (2000 mg/kg i.v., 5 days): 0; Number of death with the elapse of time (2000 mg/kg i.v., 6 days): 0; Number of death with the elapse of time (2000 mg/kg i.v., 7 days): 0
CC(=O)N[C@H]1[C@H]([C@H](O)[C@H](O)CO)OC(O)(C(=O)O)C[C@@H]1O (stereo partly drawn) [Magnesium N-acetylneuraminate] | 0/3 | 0 | 0 | 0 | 0 | 0 | 0 | 0 | 0 | 0 | 0 |  |  |  |  |  |  |  |  |  | 
CC(=O)N[C@H]1[C@H]([C@H](O)[C@H](O)CO)OC(O)(C(=O)[O-])C[C@@H]1O.[K+] (stereo partly drawn) [Potassium N-acetylneuraminate] | 0/3 | 0 | 0 | 0 | 0 | 0 | 0 | 0 | 0 | 0 | 0 | 3/3 | 3 | 0 | 0 | 0 | 0 | 0 | 0 | 0 | Number of death with the elapse of time (1000 mg/kg i.v., 6 days): 0; Number of death with the elapse of time (1000 mg/kg i.v., 7 days): 0; Death (1000 mg/kg or 2000 mg/kg i.v.): all of the three mice died; Final death rate (2000 mg/kg i.v.): 3/3; Number of death with the elapse of time (2000 mg/kg i.v., 1 hr): 3; Number of death with the elapse of time (2000 mg/kg i.v., 3 hrs): 0; Number of death with the elapse of time (2000 mg/kg i.v., 6 hrs): 0; Number of death with the elapse of time (2000 mg/kg i.v., 24 hrs): 0; Number of death with the elapse of time (2000 mg/kg i.v., 2 days): 0; Number of death with the elapse of time (2000 mg/kg i.v., 3 days): 0; Number of death with the elapse of time (2000 mg/kg i.v., 4 days): 0; Number of death with the elapse of time (2000 mg/kg i.v., 5 days): 0; Number of death with the elapse of time (2000 mg/kg i.v., 6 days): 0; Number of death with the elapse of time (2000 mg/kg i.v., 7 days): 0
